Results published in patent US5705687A, “Neurotropic drug and method for preparation of same” (priority 1993, dated 1998).
Where “and” joins values, the source holds several entries; their conditions need not be identical. Equal values may be shown once. Where a name gives a salt, the structure may show the parent alone. Read-outs that look alike come from different tables or passages of the source.

Assays:
mice [1] = assay: Soporific action of barbital sodium
central nervous system = assay: Neuropharmacological screening, overall findings; assay type: in vivo, mice; conditions: examined dosage range
Method: (§1) The myorelaxing effect of the new compounds was tested by the method of the "rotating rod"(Dunham N. W., Miga T. S., A note on a simplex apparatus for detecting neurological deficit in rat and mice, J. Am. Pharm. Ass., 1957, vol. 46, No. 3, pp. 208-209), which allows one to record any abnormalities in coordination and balance, as well as ataxia. The mice in the laboratory tests were placed on a horizontal rod, 2 cm in diameter, rotating at a speed of 5 revolutions per minute. The object was to register the number of mice which were able to maintain equilibrium on the rod for two minutes. Any presence of a myorelaxing component was considered to be a side effect of the substance being studied.

[2] = Solubility and hygroscopicity; assay type: physicochemical
mice [3] = assay: Hemic hypoxia (sodium nitrite), lifespan; assay type: in vivo; conditions: 400 mg/kg i.p., control
Method: (§2) The antihypoxic properties of the new compounds were tested in the models of hypoxic normobaric, hemic and histotoxic hypoxia. The hypoxic (hypercapnic) normobaric hypoxia was induced by placing the mice in hermetically sealed transparent boxes, subdivided into compartments, 80 cm^3 each. The animals were observed until all respiratory movements ceased. The hemic hypoxia was induced by the intraperitoneal administration of sodium nitrite in a dose of 400 mg/kg. The hystotoxic hypoxia was induced by the intraperitoneal administration of sodium nitroprussiate, in a dose of a 20 mg/kg dosage.

mice [4] = assay: Soporific action of hexobarbital
[5] = background statement on the known drug; cited from earlier work
mice [6] = assay: Histotoxic hypoxia (sodium nitroprussiate), lifespan; assay type: in vivo; conditions: 250, 500 and 1000 mg/kg (two values for three doses (so in the source))
Method: as §2

[7] = cited from earlier work
[8] = Acute toxicity in mice (Litchfield-Wilcockson); assay type: in vivo, white crossbred mice; conditions: mouse, in vivo
mice [9] = assay: Rotating rod: myorelaxation and movement coordination; assay type: in vivo, white crossbred mice
Method: as §1

mice [10] = assay: Orientation reflexes: test of ascent onto an inclined net
mice [11] = assay: Conditioned reaction of passive avoidance (CPRA), amnesia by electric shock; assay type: in vivo; conditions: 250 to 500 mg/kg; earlier tests
Source text: The effect produced by the new substance on the processes of the central nervous system was examined on the model of one-time training of mice, of conditioned reaction of passive avoidance (CPRA), where the amnesic effect was produced by electric shock. During the tests, a two-section chamber was used to condition a certain reflex to the lit and darkened sections. First, for two minutes, the amount of time was registered, that a mouse spent in the lit section before entering the darkened section. Then, while in the darkened section, the animal would receive a single electric shock through the electrode floor (training). The training was immediately followed by an electric shock (50 Hz, 0.2 see). […] The substance was intraperitoneally administered 40 min. prior to the start of the training, the control group received a physiological solution. […] The anti-amnesic properties of the new compound are represented by an increase in the latent period before and after the training. (Δt)

mice [12] = assay: Spontaneous motor activity (SMA), 40-channel automatic motor meter; conditions: for Average SMA, M ± m: control 524.0 ± 99.2; for Relative change in activity (%): control = 100

CCC1(CC)C(=O)NC(=O)NC1=O [Barbitol sodium, barbital sodium, reference compound]
Lateral position (min), barbiturate alone (mice [1]; 250 mg/kg i.p., control of each experiment): 31.8 ± 1.1 min and 34.5 ± 1.4 min and 38.1 ± 1.3 min

CC(C)(CO)C(=O)C(=O)NCCCC(=O)O [KPA, N-(4-hydroxy-3,3-dimethyl-2-oxo-1-butyryl)γ-aminobutyric acid]
depressing effect on the animals (central nervous system): no depressing effect | solubility in acetone or chloroform ([2]; acetone, chloroform): not in acetone or chloroform | solubility in water and alcohol ([2]; water, alcohol): readily soluble

O=N[O-].[Na+] [Na-nitrite, sodium nitrite, reference compound]
Average lifespan (sec), hypoxia inducer alone (mice [3]): 790.5 ± 21.1 s

CN1C(=O)NC(=O)C(C)(C2=CCCCC2)C1=O (stereo not shown) [hexobarbital, reference compound]
Duration of sleep (min), barbiturate alone (mice [4]; 100 mg/kg i.p., control): 46.3 ± 2.3 min | Lateral position (min), barbiturate alone (mice [4]; 100 mg/kg i.p., control): 2.4 ± 0.15 min

CC(C)(CO)[C@@H](O)C(=O)NCCCC(=O)O [pantogam, calcium salt of the D-homopantothenic acid, reference compound]
therapeutic index [5]: 3.3 | increase in lifespan (mice [6]): 57% and 85% | undesirable side effects ([7]; known drug, high dose): depression and myorelaxation | penetration of the hematoencephalitic barrier compared to aminalon ([7]; vs aminalon): better penetration | LD50 ([8]; intravenous, read-out: DL50 (the source's name)): 1080 mg/kg | LD50 ([8]; ip, earlier experiments, identical conditions, read-out: DL50 (acute toxicity)): 2250 mg/kg | MTD ([8]; ip, read-out: maximum tolerance level): 1000 mg/kg | increase of soporific effect (mice [1]; 500 mg/kg, barbital sodium, indicated earlier): 20% | loss of movement coordination (side effect) (mice [9]; 300 mg/kg and higher): loss of movement coordination | time of maximum strength (mice [9]; after injection, rotating rod): 30 min | return of movement coordination and muscle strength (not until) (mice [9]; after the start of the experiment): 1.5 h | ED50 (mice [10]; Mus musculus, ip, read-out: average effective dose (DE50)): 680 mg/kg | time of maximum strength (mice [10]; after administration, orientation reflex): 60 min | effect on orientation reflex (mice [10]; mice): suppressed the orientation reflex | increase of soporific effect (mice [4]; 500 mg/kg, hexobarbital, indicated earlier): 40% | anti-amnesic effect (in words) (mice [11]): moderate a anti-amnesic effect | anti-amnesic effect, share of latent period in animals not exposed to the electric shock (mice [11]): 60-75% | decrease in number of runs in the motor meter (mice [12]; 500 mg/kg): 30% | Average SMA, M ± m (mice [12]; 500 mg/kg i.p.): 392.0 ± 307 | Relative change in activity (%) (mice [12]; 500 mg/kg i.p.): 74.8% | Average SMA, M ± m (mice [12]; 1000 mg/kg i.p., P < 0.05): 176.0 ± 116 | Relative change in activity (%) (mice [12]; 1000 mg/kg i.p.): 33.6% | decrease in motor activity (mice [12]; 1000 mg/kg, the maximum tolerable dose): 70% | effect on motor activity (in words) (mice [12]; SMA test, mice): depressing effect on motor activity
